Assay results as given in ChEMBL document CHEMBL2074485, “Identification of thyroid hormone transporters in humans: different molecules are involved in a tissue-specific manner” (Endocrinology, 2001).

Key:
[1] = biological target: T1, Solute carrier organic anion transporter family member 4A1 (Homo sapiens, UniProt Q96BD0); experiment: TP_TRANSPORTER: inhibition of T3 uptake (T3: 1 uM, T4: 100 uM) in Xenopus laevis oocytes; format: functional, cell-based; settings: oocyte
T1 sequence (Q96BD0 whole entry): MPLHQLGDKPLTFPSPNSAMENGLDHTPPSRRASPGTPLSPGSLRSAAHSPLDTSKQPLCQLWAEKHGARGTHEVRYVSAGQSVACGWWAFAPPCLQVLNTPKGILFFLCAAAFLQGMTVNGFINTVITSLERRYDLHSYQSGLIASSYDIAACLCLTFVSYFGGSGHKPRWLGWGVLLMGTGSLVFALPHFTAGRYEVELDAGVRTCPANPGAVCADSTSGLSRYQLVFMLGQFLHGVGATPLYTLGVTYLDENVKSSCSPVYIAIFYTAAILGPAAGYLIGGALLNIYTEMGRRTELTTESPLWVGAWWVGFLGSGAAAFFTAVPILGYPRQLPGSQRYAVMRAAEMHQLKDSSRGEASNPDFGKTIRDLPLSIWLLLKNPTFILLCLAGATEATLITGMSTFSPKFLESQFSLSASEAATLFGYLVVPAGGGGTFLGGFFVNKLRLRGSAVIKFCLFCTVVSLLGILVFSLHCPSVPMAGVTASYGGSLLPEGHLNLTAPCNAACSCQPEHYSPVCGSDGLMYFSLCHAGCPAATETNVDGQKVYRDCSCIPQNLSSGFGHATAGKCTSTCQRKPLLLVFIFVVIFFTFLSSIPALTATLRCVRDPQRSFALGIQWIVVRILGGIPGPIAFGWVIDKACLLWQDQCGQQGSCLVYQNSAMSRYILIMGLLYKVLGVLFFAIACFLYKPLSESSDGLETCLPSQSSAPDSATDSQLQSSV

[2] = biological target: T1, Solute carrier organic anion transporter family member 4A1; experiment: (§1) TP_TRANSPORTER: uptake in Xenopus laevis oocytes; format: functional, cell-based; settings: oocyte
[3] = biological target: T2, Solute carrier organic anion transporter family member 1A2 (OATP1A2, SLCO1A2) (Homo sapiens, UniProt P46721); experiment: as §1; settings: Xenopus laevis oocytes expressing the transporter
T2 sequence (P46721 whole entry): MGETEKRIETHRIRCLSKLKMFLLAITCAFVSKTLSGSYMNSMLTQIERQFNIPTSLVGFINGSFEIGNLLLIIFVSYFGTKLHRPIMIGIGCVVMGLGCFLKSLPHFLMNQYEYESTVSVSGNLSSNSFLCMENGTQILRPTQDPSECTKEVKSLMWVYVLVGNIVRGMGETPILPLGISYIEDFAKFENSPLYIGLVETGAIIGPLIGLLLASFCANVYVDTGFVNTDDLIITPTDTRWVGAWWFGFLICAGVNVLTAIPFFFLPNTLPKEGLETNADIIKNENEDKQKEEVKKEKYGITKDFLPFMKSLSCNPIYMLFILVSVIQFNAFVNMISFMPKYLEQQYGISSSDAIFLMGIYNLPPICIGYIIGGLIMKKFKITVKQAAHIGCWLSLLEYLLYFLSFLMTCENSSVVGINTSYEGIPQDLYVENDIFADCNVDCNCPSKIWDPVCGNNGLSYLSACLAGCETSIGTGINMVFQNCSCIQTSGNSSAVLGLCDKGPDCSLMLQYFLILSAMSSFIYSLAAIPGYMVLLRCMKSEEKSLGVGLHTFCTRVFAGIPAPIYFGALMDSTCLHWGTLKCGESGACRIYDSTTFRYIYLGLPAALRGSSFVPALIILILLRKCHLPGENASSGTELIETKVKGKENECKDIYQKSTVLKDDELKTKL

[4] = biological target: T1, Solute carrier organic anion transporter family member 4A1; experiment: TP_TRANSPORTER: inhibition of Taurocholate uptake (Taurochorate: 5 uM, T3: 50 uM) in Xenopus laevis oocytes; format: functional, cell-based; settings: oocyte
[5] = biological target: T1, Solute carrier organic anion transporter family member 4A1; experiment: TP_TRANSPORTER: inhibition of Taurocholate uptake (Taurochorate: 5 uM, BSP: 50 uM) in Xenopus laevis oocytes; format: functional, cell-based; settings: oocyte
[6] = substrate: N[C@@H](Cc1cc(I)c(Oc2ccc(O)c(I)c2)c(I)c1)C(=O)O; experiment: as §1; format: functional, cell-based, Oocyte

## N[C@@H](Cc1cc(I)c(Oc2cc(I)c(O)c(I)c2)c(I)c1)C(=O)O [LEVOTHYROXINE]
[1]
  Activity: inhibitor [(at a rough estimate) 15 % of control]
[2]
  Activity: substrate [+]
[3]
  Km: 8 µM

## N[C@@H](Cc1cc(I)c(Oc2ccc(O)c(I)c2)c(I)c1)C(=O)O [LIOTHYRONINE]
[4]
  Activity: inhibitor [(at a rough estimate) 30 % of control]

## O=C1OC(c2ccc(O)c(S(=O)(=O)[O-])c2)(c2ccc(O)c(S(=O)(=O)[O-])c2)c2c(Br)c(Br)c(Br)c(Br)c21.[Na+].[Na+] [SULFOBROMOPHTHALEIN SODIUM]
[5]
  Activity: inhibitor [(at a rough estimate) 15 % of control]

## N[C@@H](Cc1ccc(Oc2cc(I)c(O)c(I)c2)c(I)c1)C(=O)O [REVERSE TRIIODOTHYRONINE]
[2]
  Activity: substrate [+]

B1: Solute carrier organic anion transporter family member 4A1 (Homo sapiens) (protein)
chain: MPLHQLGDKPLTFPSPNSAMENGLDHTPPSRRASPGTPLSPGSLRSAAHSPLDTSKQPLCQLWAEKHGARGTHEVRYVSAGQSVACGWWAFAPPCLQVLNTPKGILFFLCAAAFLQGMTVNGFINTVITSLERRYDLHSYQSGLIASSYDIAACLCLTFVSYFGGSGHKPRWLGWGVLLMGTGSLVFALPHFTAGRYEVELDAGVRTCPANPGAVCADSTSGLSRYQLVFMLGQFLHGVGATPLYTLGVTYLDENVKSSCSPVYIAIFYTAAILGPAAGYLIGGALLNIYTEMGRRTELTTESPLWVGAWWVGFLGSGAAAFFTAVPILGYPRQLPGSQRYAVMRAAEMHQLKDSSRGEASNPDFGKTIRDLPLSIWLLLKNPTFILLCLAGATEATLITGMSTFSPKFLESQFSLSASEAATLFGYLVVPAGGGGTFLGGFFVNKLRLRGSAVIKFCLFCTVVSLLGILVFSLHCPSVPMAGVTASYGGSLLPEGHLNLTAPCNAACSCQPEHYSPVCGSDGLMYFSLCHAGCPAATETNVDGQKVYRDCSCIPQNLSSGFGHATAGKCTSTCQRKPLLLVFIFVVIFFTFLSSIPALTATLRCVRDPQRSFALGIQWIVVRILGGIPGPIAFGWVIDKACLLWQDQCGQQGSCLVYQNSAMSRYILIMGLLYKVLGVLFFAIACFLYKPLSESSDGLETCLPSQSSAPDSATDSQLQSSV
[6]
  Km: 0.9 µM
